Structures can show the parent of a compound that is named as a salt. Marks after values point to notes of the source that are not given here.
Assays:
Type in all cases: cell-based
[1] = tested on: Candida albicans 12012; test: Fungicidal effect, viable cell count after 24 h in broth
Procedure: Medium used: Sabouraud's (glucose 2%) broth medium
Test strain: Candida albicans 12012
Inoculum size: about 10^4 cells/ml (1% of a 24-hour culture using Sabouraud's broth medium at 30° C.)
To one part by volume of a drug solution prepared at a concentration 10 times the predetermined concentration was added 9 parts by volume of the inoculated Sabouraud's broth medium, followed by mixing. The mixture was incubated at 30° C. for 24 hours and the MIC was determined.
Furthermore, 0.1 ml samples were taken from the test microbial suspensions of varying concentrations and inoculated onto Sabouraud's (glucose 2%) agar plates using Conradi's spreader.
After 2 days of culture at 30° C., the colonies formed were counted and the number of remaining viable cells per 0.1 ml was determined.

[2] = tested on: Trichophyton rubrum 7005; test: Agar plate dilution assay (checker board), PY + BTF
Procedure: (§1) With Trichophyton spp., each strain was cultured on a Sabouraud's glucose agar (glucose 2%) slant at 25° C. for 2˜3 weeks. Then, about 3˜5 ml of physiological saline supplemented with 0.1% (w/v) Tween 80 and sterilized was added to the above slant culture of the test strain and conidia were liberated by scratching the slant surface with a platinum loop. The collected conidial suspension was filtered through a fine-mesh metal sieve to remove hyphal masses and, then, centrifuged at 3000×g for 10 minutes to concentrate the conidia. The concentrate was resuspended in the same sterile saline solution as above, the conidia were counted with a hemocytometer, and the suspension was adjusted to a predetermined conidial population (10^5 spores/ml).
(§2) Each plate was inoculated with a microbial suspension of predetermined concentration (cells or spores/ml) by the stamping method. Trichophyton spp. were cultured at 25° C. for 2 weeks and Candida spp. were cultured at 30° C. for 2 days. Then, the growth of each test strain was investigated.
(§3) The FIC index was calculated from the MIC value of PY or LC as used alone or PY and LC as used in combination.
(§4) For Trichophyton spp., the same medium as used in Test Example 1 was used.
(§5) With Trichophyton spp., the procedure of Test Example 1 was repeated.
(§6) A 1 mg/ml solution of each drug was prepared by using ethyl alcohol for PY or dimethyl sulfoxide (DMSO) for BTF and diluted to a predetermined concentration using 20% ethyl alcohol as diluent for PY or 10% DMSO as diluent for BTF.
(§7) In the case of Trichophyton spp., 0.5 ml of a PY solution and 0.5 ml of a BTF solution, both of predetermined concentration, were blended with 9 ml of the medium to prepare a drug-containing agar plate and the procedure of test Example 1 was repeated.
(§8) Calculation of the FIC index was also performed in the same manner as in Test Example 1.

[3] = tested on: Trichophyton rubrum 7030; test: as above
Procedure: as §1, §2, §3, §4, §5, §6, §7, §8

[4] = tested on: Staphylococcus epidermidis 15001; test: as above; settings: drug alone, test strain g, 37° C., 20 hours
Procedure: For the general bacterium (S. epidermidis), Mueller Hinton agar medium was used. The general bacterium was cultured in Mueller Hinton broth medium at 37° C. for 20 hours and the culture was diluted 100-fold with the same medium (10^6 cells/ml) and used. A 1 mg/ml solution of each drug was prepared by using ethyl alcohol for PY or dimethyl sulfoxide (DMSO) for BTF and diluted to a predetermined concentration using 20% ethyl alcohol as diluent for PY or 10% DMSO as diluent for BTF. In the case of the general bacterium, Mueller Hinton agar medium was used to prepare plates and the procedure of Test Example 1 was repeated. After 20 hours of culture at 37° C., the growth of the test organism was investigated. Calculation of the FIC index was also performed in the same manner as in Test Example 1.

[5] = tested on: Candida albicans 12012; test: Agar plate dilution assay (checker board), PY + LC; settings: 48 h, drug alone, test strain b, 30° C., 2 days
Procedure: (§9) Sabouraud's glucose agar (glucose 2%) Candida albicans was cultured in Sabouraud's broth medium (glucose 2%) at30° C. for 24 hours and the resulting culture was diluted 10-fold with the same medium as above (10^5 cells/ml) and used. Using ethyl alcohol for PY and dimethyl sulfoxide (DMSO) for LC, a 1 mg/ml solution of each drug was respectively prepared. Then, the solution was diluted to a predetermined concentration using 20% ethyl alcohol as diluent for PY and 10% DMSO as diluent for LC. For the determination of inhibitory activity, 0.5 ml of a PY solution and 0.5 ml of an LC solution, each adjusted to a predetermined concentration were blended with 9 ml of Sabouraud's glucose agar medium to prepare drug-containing plates (checker board method). Each plate was inoculated with a microbial suspension of predetermined concentration (cells or spores/ml) by the stamping method. Trichophyton spp. were cultured at 25° C. for 2 weeks and Candida spp. were cultured at 30° C. for 2 days. Then, the growth of each test strain was investigated. The FIC index was calculated from the MIC value of PY or LC as used alone or PY and LC as used in combination.

[6] = tested on: Candida albicans YU-1200; test: Agar plate dilution assay (checker board), PY + LC; settings: YU1200, 48 h, drug alone, test strain a, 30° C., 2 days
Procedure: as §9

[7] = tested on: Trichophyton rubrum 7010; test: Agar plate dilution assay (checker board), PY + LC; settings: Trichophyton rubrum, 7010, 336 h
Procedure: (§10) Sabouraud's glucose agar (glucose 2%)
as §1
(§11) Using ethyl alcohol for PY and dimethyl sulfoxide (DMSO) for LC, a 1 mg/ml solution of each drug was respectively prepared. Then, the solution was diluted to a predetermined concentration using 20% ethyl alcohol as diluent for PY and 10% DMSO as diluent for LC.
(§12) For the determination of inhibitory activity, 0.5 ml of a PY solution and 0.5 ml of an LC solution, each adjusted to a predetermined concentration were blended with 9 ml of Sabouraud's glucose agar medium to prepare drug-containing plates (checker board method).
as §2, §3

[8] = tested on: Trichophyton rubrum 7030; test: Agar plate dilution assay (checker board), PY + LC; settings: Trichophyton rubrum, 7030, 336 h
Procedure: as §10, §1, §11, §12, §2, §3

[9] = tested on: Candida albicans 16010; test: Agar plate dilution assay (checker board), PY + TF; settings: 48 h, drug alone, test organism h, 30° C., 2 days
Procedure: Mueller Hinton agar medium was used for Staphylococcus spp. and Sabouraud's glucose agar (glucose 2%) medium was used for the fungi. Candida albicans was cultured in Sabouraud's broth medium (glucose 2%) at 30° C. for 24 hours and the culture was diluted 10-fold (10^5 cells/ml) with the same medium and used. A 1 mg/ml solution of each drug was prepared using ethyl alcohol for PY or dimethyl sulfoxide (DMSO) for TF and diluted to a predetermined concentration by using 20% ethyl alcohol as diluent for PY or 10% DMSO as diluent for TF. For the determination of the growth-inhibitory effects of drugs on test organisms, drug-containing plates were prepared by blending 0.5 ml of a PY solution and 0.5 ml of a TF solution, both of predetermined concentration, with 9 ml of said medium. The plates were inoculated with the microbial suspensions (cells or spores/ml) by the stamping technique. Trichophyton spp. were cultured at 25° C. for 2 weeks, Candida spp. at 30° C. for 2 days, and Staphylococcus spp. at 37° C. for 20 hours. Then, the growth of each test organism was investigated (checker board method). The FIC index was calculated from the MIC value of PY or TF alone or the two drugs used in combination.

[10] = tested on: Trichophyton rubrum 7010; test: Agar plate dilution assay (checker board), PY + TF
Procedure: (§13) Mueller Hinton agar medium was used for Staphylococcus spp. and Sabouraud's glucose agar (glucose 2%) medium was used for the fungi.
as §1
(§14) A 1 mg/ml solution of each drug was prepared using ethyl alcohol for PY or dimethyl sulfoxide (DMSO) for TF and diluted to a predetermined concentration by using 20% ethyl alcohol as diluent for PY or 10% DMSO as diluent for TF.
(§15) For the determination of the growth-inhibitory effects of drugs on test organisms, drug-containing plates were prepared by blending 0.5 ml of a PY solution and 0.5 ml of a TF solution, both of predetermined concentration, with 9 ml of said medium.
(§16) The plates were inoculated with the microbial suspensions (cells or spores/ml) by the stamping technique. Trichophyton spp. were cultured at 25° C. for 2 weeks, Candida spp. at 30° C. for 2 days, and Staphylococcus spp. at 37° C. for 20 hours. Then, the growth of each test organism was investigated (checker board method).
(§17) The FIC index was calculated from the MIC value of PY or TF alone or the two drugs used in combination.

[11] = tested on: Trichophyton rubrum 7030; test: Agar plate dilution assay (checker board), PY + TF
Procedure: as §13, §1, §14, §15, §16, §17

[12] = tested on: Staphylococcus aureus FP5; test: Agar plate dilution assay (checker board), PY + TF; settings: drug alone, test organism k, 37° C., 20 hours
Procedure: (§18) Mueller Hinton agar medium was used for Staphylococcus spp. and Sabouraud's glucose agar (glucose 2%) medium was used for the fungi. Staphylococcus spp. were cultured in Mueller Hinton broth medium at 37° C. for 18˜20 hours and diluted 100-fold with the same medium (about 10^6 cells/ml) and this dilution was used as the inoculum. A 1 mg/ml solution of each drug was prepared using ethyl alcohol for PY or dimethyl sulfoxide (DMSO) for TF and diluted to a predetermined concentration by using 20% ethyl alcohol as diluent for PY or 10% DMSO as diluent for TF. For the determination of the growth-inhibitory effects of drugs on test organisms, drug-containing plates were prepared by blending 0.5 ml of a PY solution and 0.5 ml of a TF solution, both of predetermined concentration, with 9 ml of said medium. The plates were inoculated with the microbial suspensions (cells or spores/ml) by the stamping technique. Trichophyton spp. were cultured at 25° C. for 2 weeks, Candida spp. at 30° C. for 2 days, and Staphylococcus spp. at 37° C. for 20 hours. Then, the growth of each test organism was investigated (checker board method). The FIC index was calculated from the MIC value of PY or TF alone or the two drugs used in combination.

[13] = tested on: Staphylococcus epidermidis 15001; test: Agar plate dilution assay (checker board), PY + TF; settings: drug alone, test organism l, 37° C., 20 hours
Procedure: as §18

[14] = drug concentration 3.13 μg/ml, class symbol
[15] = drug concentration 6.25 μg/ml, class symbol

| Compound | Viable cell count [1, 14] | Viable cell count [1, 15] | Viable cell count ([1]; drug concentration 12.5 μg/ml) [CFU/0.1 ml] | Viable cell count ([1]; drug concentration 25 μg/ml) [CFU/0.1 ml] | MIC [2] [µg/mL] | MIC [3] [µg/mL] | MIC [4] [µg/mL] | MIC [5] [µg/mL] | MIC [6] [µg/mL] | MIC [7] [µg/mL] | MIC [8] [µg/mL] | MIC [9] [µg/mL] | MIC ([10]; Trichophyton rubrum, 7010, 336 h) [µg/mL] | MIC ([11]; Trichophyton rubrum, 7030, 336 h) [µg/mL] | MIC [12] [µg/mL] | MIC [13] [µg/mL] | MIC ([10]; 336 h, drug alone, test organism i, Trichophyton rubrum 7010, 25° C., 2 weeks, read-out: MIC) [µg/mL] | MIC ([11]; 336 h, drug alone, test organism j, Trichophyton rubrum 7030, 25° C., 2 weeks, read-out: MIC) [µg/mL] |
| --- | --- | --- | --- | --- | --- | --- | --- | --- | --- | --- | --- | --- | --- | --- | --- | --- | --- | --- |
| Pyrrolnitrin | ∞ (∞: 10^3˜10^4) | ∞ (∞: 10^3˜10^4) | 1012 | 1 | – | – | – | – | – | – | – | – | – | – | – | – | – | – |
| CN(Cc1ccc(C(C)(C)C)cc1)Cc1cccc2ccccc12 [BTF, Butenafine Hydrochloride] | – | – | – | – | 0.025 | 0.025 | 25 | – | – | – | – | – | – | – | – | – | – | – |
| O=[N+]([O-])c1c(Cl)cccc1-c1c[nH]cc1Cl [PY, Pyrrolnitrin] | – | – | – | – | 0.1 | 0.1 | 25 | 25 | 12.5 | 0.2 | 0.2 | 25 | 0.2 | 0.39 | 25 | 12.5 | – | – |
| N#C/C(=C1/SCC(c2ccccc2Cl)S1)n1ccnc1 (centres unmarked) [LC, Lanoconazole] | ∞ (∞: 10^3˜10^4) | ∞ (∞: 10^3˜10^4) | 876 | 308 | – | – | – | 25 | 12.5 | 0.025 | 0.0125 | – | – | – | – | – | – | – |
| CN(C/C=C/C#CC(C)(C)C)Cc1cccc2ccccc12 [TF, Terbinafine Hydrochloride] | – | – | – | – | – | – | – | – | – | – | – | 50 | – | – | 50 | 25 | 0.0125 | 0.0125 |
